Assay results: patent publication US12139520B2 (priority 2020, dated 2024)
Numbered stars: 1 amine (or outer) side, 2 acyl side, 3 side chain; on linkers, the order of the positions; unused ones are H or OH. Bridge positions count the residues as written; N and C are the ends. Square brackets hold non-standard residues; d marks the D form. Peptide text beside a SMILES is read from it. * marks the point of attachment. C20 diacid = O=C(O)CCCCCCCCCCCCCCCCCCC(=O)*; γGlu = O=C(O)[C@H](CCC(=O)[*:2])N[*:1]; Hyp = O=C(O)[C@@H]1C[C@@H](O)CN1; NMeI = CC[C@H](C)[C@H](NC)C(=O)O; Sar = CNCC(=O)O

Target: T1, hAMY3 receptor (Homo sapiens, UniProt O60896+P30988)
T1 sequence (P30988 25-474): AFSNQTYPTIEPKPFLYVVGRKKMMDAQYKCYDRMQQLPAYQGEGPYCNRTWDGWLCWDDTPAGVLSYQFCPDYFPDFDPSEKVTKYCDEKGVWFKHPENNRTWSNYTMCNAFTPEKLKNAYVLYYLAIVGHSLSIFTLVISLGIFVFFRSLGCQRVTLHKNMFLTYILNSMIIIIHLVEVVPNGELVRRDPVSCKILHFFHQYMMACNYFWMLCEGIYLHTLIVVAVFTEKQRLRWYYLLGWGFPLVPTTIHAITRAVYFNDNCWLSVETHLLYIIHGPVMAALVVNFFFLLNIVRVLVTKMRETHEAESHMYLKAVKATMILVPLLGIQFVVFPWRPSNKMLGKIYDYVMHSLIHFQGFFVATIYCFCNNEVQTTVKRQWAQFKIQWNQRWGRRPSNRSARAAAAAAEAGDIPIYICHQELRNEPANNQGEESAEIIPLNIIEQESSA
T1 sequence (O60896 24-148 partner): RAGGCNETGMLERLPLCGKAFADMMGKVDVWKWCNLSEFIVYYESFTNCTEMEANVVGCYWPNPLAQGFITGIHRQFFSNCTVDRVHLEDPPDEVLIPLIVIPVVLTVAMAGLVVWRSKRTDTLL
Test: cAMP assay for in vitro receptor activation, hAMY3-R
Assay type: cell-based
Settings: cAMP assay, hAMY3 receptor; read-out: hAMY3R EC50
Method: General Protocols for cAMP Assays for Measuring In Vitro Receptor Activation
Cells stably overexpressing the hAMY3 receptor were obtained from Ogeda (now Astellas Pharma), sub-cloned and a monoclonal cell-line with an appropriate assay-window was expanded, aliquoted and frozen.
An aliquot was thawed and plated in DPBS with 0.05% casein and 0.5 mM IBMX as 2000 cells/well in a 384-well format. The cells were then immediately stimulated for 30 min at room temperature with graded doses of test compound using human amylin (Bachem, cat no. H-7905) as a positive control. cAMP accumulation was measured using a Cisbio assay for Gs coupled receptors (cat. no. 62AM4PEC), where the assay reagents were added as per the manufacturer's instructions and time-resolved fluorescence energy transfer recorded after one hour.

| EC50 [nM] | Structure (SMILES) |
| --- | --- |
| 0.017 | CC(C)C[C@H](NC(=O)[C@H](CCCNC(=N)N)NC(=O)[C@H](CCC(N)=O)NC(=O)[C@@H](NC(=O)[C@@H](NC(=O)[C@@H]1CSSC[C@H](NC(=O)CN)C(=O)N[C@@H](CCCNC(=N)N)C(=O)N[C@@H](Cc2ccccc2)C(=O)NCC(=O)N[C@@H]([C@@H](C)O)C(=O)N1)[C@@H](C)O)C(C)C)C(=O)N[C@@H](C)C(=O)N[C@@H](Cc1c[nH]cn1)C(=O)N[C@@H](Cc1ccccc1)C(=O)N[C@@H](CC(C)C)C(=O)N[C@@H](Cc1ccc(O)cc1)C(=O)N[C@@H](CCC(N)=O)C(=O)N[C@@H](Cc1ccccc1)C(=O)N[C@H](C(=O)N[C@@H](CC(=O)O)C(=O)N[C@@H](CCCCN)C(=O)N[C@@H](CC(=O)O)C(=O)N[C@@H](CCCCN)C(=O)N[C@@H](CC(=O)O)C(=O)N[C@@H](CC(N)=O)C(=O)N[C@H](C(=O)N[C@@H](C)C(=O)N1CCC[C@H]1C(=O)N[C@@H](CCCNC(=N)N)C(=O)N[C@H](C(=O)N[C@@H](CCCCN)C(=O)N[C@H](C(=O)NCC(=O)N1CCC[C@H]1C(=O)N[C@@H](CCC(N)=O)C(=O)NCC(=O)N[C@@H](Cc1ccc(O)cc1)C(N)=O)C(C)C)[C@@H](C)O)C(C)C)[C@@H](C)O [compound 369] (H-GCRFGTCTVQRLAHFLYQFTDKDKDNVAPRTKVGPQGY-NH2; disulfide 2-7; N-terminus assumed) |
| 0.024 | CC(C)C[C@H](NC(=O)[C@H](CCCNC(=N)N)NC(=O)[C@H](CCC(N)=O)NC(=O)[C@@H](NC(=O)[C@@H](NC(=O)[C@@H]1CSSC[C@H](NC(=O)CN)C(=O)N[C@@H](CCCNC(=N)N)C(=O)N[C@@H](Cc2ccccc2)C(=O)NCC(=O)N[C@@H]([C@@H](C)O)C(=O)N1)[C@@H](C)O)C(C)C)C(=O)N[C@@H](C)C(=O)N[C@@H](Cc1c[nH]cn1)C(=O)N[C@@H](Cc1ccccc1)C(=O)N[C@@H](CC(C)C)C(=O)N[C@@H](Cc1ccc(O)cc1)C(=O)N[C@@H](CCC(N)=O)C(=O)N[C@@H](Cc1ccccc1)C(=O)N[C@H](C(=O)N[C@@H](CC(=O)O)C(=O)N[C@@H](CCCCN)C(=O)N[C@@H](CC(=O)O)C(=O)N[C@@H](CCCCN)C(=O)N[C@@H](CC(=O)O)C(=O)N[C@@H](CC(N)=O)C(=O)N[C@H](C(=O)N[C@@H](C)C(=O)N1CCC[C@H]1C(=O)N[C@@H](CCCNC(=N)N)C(=O)N[C@H](C(=O)N[C@@H](CCCCN)C(=O)N[C@H](C(=O)NCC(=O)N[C@@H](CO)C(=O)N[C@@H](CC(N)=O)C(=O)NCC(=O)N[C@@H](Cc1ccc(O)cc1)C(N)=O)C(C)C)[C@@H](C)O)C(C)C)[C@@H](C)O [compound 117] (H-GCRFGTCTVQRLAHFLYQFTDKDKDNVAPRTKVGSNGY-NH2; disulfide 2-7; N-terminus assumed) |
| 0.029 | CC[C@H](C)[C@H](NC(=O)[C@H](CC(N)=O)NC(=O)[C@@H](NC(=O)[C@H](CCCNC(=N)N)NC(=O)[C@@H]1CCCN1C(=O)[C@H](C)NC(=O)[C@@H](NC(=O)[C@H](CC(N)=O)NC(=O)[C@H](CC(=O)O)NC(=O)[C@H](CCCCN)NC(=O)[C@H](CC(=O)O)NC(=O)[C@H](CCCCN)NC(=O)[C@H](CC(=O)O)NC(=O)[C@@H](NC(=O)[C@H](Cc1ccccc1)NC(=O)[C@H](CCC(N)=O)NC(=O)[C@H](Cc1ccc(O)cc1)NC(=O)[C@@H](NC(=O)[C@H](CCC(N)=O)NC(=O)[C@H](Cc1c[nH]cn1)NC(=O)[C@H](C)NC(=O)[C@H](CC(C)C)NC(=O)[C@H](CCCNC(=N)N)NC(=O)[C@H](CCC(N)=O)NC(=O)[C@@H](NC(=O)[C@@H](NC(=O)[C@@H]1CSSC[C@H](NC(=O)CN)C(=O)N[C@@H](CCCNC(=N)N)C(=O)N[C@@H](Cc2ccccc2)C(=O)NCC(=O)N[C@@H]([C@@H](C)O)C(=O)N1)[C@@H](C)O)C(C)C)[C@@H](C)CC)[C@@H](C)O)C(C)C)[C@@H](C)O)C(=O)NCC(=O)N1CCC[C@H]1C(=O)N[C@@H](CCC(N)=O)C(=O)NCC(=O)N[C@@H](Cc1ccc(O)cc1)C(N)=O [compound 379] (H-GCRFGTCTVQRLAHQIYQFTDKDKDNVAPRTNIGPQGY-NH2; disulfide 2-7) |

Second part, the molecule before the results:

| Structure (SMILES) | EC50 [nM] |
| --- | --- |
| CC[C@H](C)[C@H](NC(=O)[C@H](CCCCN)NC(=O)[C@H](CO)NC(=O)[C@H](CCCNC(=N)N)NC(=O)[C@@H]1CCCN1C(=O)[C@H](C)NC(=O)[C@@H](NC(=O)[C@H](CC(N)=O)NC(=O)[C@H](CC(=O)O)NC(=O)[C@H](CCCCN)NC(=O)[C@H](CC(=O)O)NC(=O)[C@H](CCCCN)NC(=O)[C@H](CC(=O)O)NC(=O)[C@@H](NC(=O)[C@H](Cc1ccccc1)NC(=O)[C@H](CCC(N)=O)NC(=O)[C@H](Cc1ccc(O)cc1)NC(=O)[C@@H](NC(=O)[C@H](CCC(N)=O)NC(=O)[C@H](Cc1c[nH]cn1)NC(=O)[C@H](C)NC(=O)[C@H](CC(C)C)NC(=O)[C@H](CCCNC(=N)N)NC(=O)[C@H](CCC(N)=O)NC(=O)[C@@H](NC(=O)[C@@H](NC(=O)[C@@H]1CSSC[C@H](NC(=O)CN)C(=O)N[C@@H](CCCNC(=N)N)C(=O)N[C@@H]([C@@H](C)O)C(=O)NCC(=O)N[C@@H]([C@@H](C)O)C(=O)N1)[C@@H](C)O)C(C)C)[C@@H](C)CC)[C@@H](C)O)C(C)C)C(=O)NCC(=O)N1CCC[C@H]1C(=O)N[C@@H](CCC(N)=O)C(=O)NCC(=O)N1C[C@H](O)C[C@H]1C(N)=O [compound 179] (H-GCRTGTCTVQRLAHQIYQFTDKDKDNVAPRSKIGPQG[Hyp]-NH2; disulfide 2-7) | 0.082 |
| CC[C@H](C)[C@H](NC(=O)[C@H](CC(N)=O)NC(=O)[C@@H](NC(=O)[C@H](CCCNC(=N)N)NC(=O)[C@@H]1CCCN1C(=O)[C@H](C)NC(=O)[C@@H](NC(=O)[C@H](CC(N)=O)NC(=O)[C@H](CC(=O)O)NC(=O)[C@H](CCCCN)NC(=O)[C@H](CC(=O)O)NC(=O)[C@H](CCCCN)NC(=O)[C@H](CC(=O)O)NC(=O)[C@@H](NC(=O)[C@H](Cc1ccccc1)NC(=O)[C@H](CCC(N)=O)NC(=O)[C@H](Cc1ccc(O)cc1)NC(=O)[C@H](CC(C)C)NC(=O)[C@H](Cc1ccccc1)NC(=O)[C@H](Cc1c[nH]cn1)NC(=O)[C@H](C)NC(=O)[C@H](CC(C)C)NC(=O)[C@H](CCCNC(=N)N)NC(=O)[C@H](CCC(N)=O)NC(=O)[C@@H](NC(=O)[C@@H](NC(=O)[C@@H]1CSSC[C@H](NC(=O)CN)C(=O)N[C@@H](CCCNC(=N)N)C(=O)N[C@@H](Cc2ccccc2)C(=O)NCC(=O)N[C@@H]([C@@H](C)O)C(=O)N1)[C@@H](C)O)C(C)C)[C@@H](C)O)C(C)C)[C@@H](C)O)C(=O)NCC(=O)N1CCC[C@H]1C(=O)N[C@@H](CCC(N)=O)C(=O)NCC(=O)N[C@@H](Cc1ccc(O)cc1)C(N)=O [compound 364] (H-GCRFGTCTVQRLAHFLYQFTDKDKDNVAPRTNIGPQGY-NH2; disulfide 2-7) | 0.01 |
| CC[C@H](C)[C@H](NC(=O)[C@H](CCCCN)NC(=O)[C@@H](NC(=O)[C@H](CCCNC(=N)N)NC(=O)[C@@H]1CCCN1C(=O)[C@H](C)NC(=O)[C@@H](NC(=O)[C@H](CC(N)=O)NC(=O)[C@H](CC(=O)O)NC(=O)[C@H](CCCCN)NC(=O)[C@H](CC(=O)O)NC(=O)[C@H](CCCCN)NC(=O)[C@H](CC(=O)O)NC(=O)[C@@H](NC(=O)[C@H](Cc1ccccc1)NC(=O)[C@H](CCC(N)=O)NC(=O)[C@H](Cc1ccc(O)cc1)NC(=O)[C@@H](NC(=O)[C@H](CCC(N)=O)NC(=O)[C@H](Cc1c[nH]cn1)NC(=O)[C@H](C)NC(=O)[C@H](CC(C)C)NC(=O)[C@H](CCCNC(=N)N)NC(=O)[C@H](CCC(N)=O)NC(=O)[C@@H](NC(=O)[C@@H](NC(=O)[C@@H]1CSSC[C@H](NC(=O)CN)C(=O)N[C@@H](CCCNC(=N)N)C(=O)N[C@@H](Cc2ccccc2)C(=O)NCC(=O)N[C@@H]([C@@H](C)O)C(=O)N1)[C@@H](C)O)C(C)C)[C@@H](C)CC)[C@@H](C)O)C(C)C)[C@@H](C)O)C(=O)NCC(=O)N1CCC[C@H]1C(=O)N[C@@H](CC(N)=O)C(=O)NCC(=O)N[C@@H](Cc1ccc(O)cc1)C(N)=O [compound 367] (H-GCRFGTCTVQRLAHQIYQFTDKDKDNVAPRTKIGPNGY-NH2; disulfide 2-7; N-terminus assumed) | 0.014 |
| CC[C@H](C)[C@@H](C(=O)N[C@@H](CC(C)C)C(=O)N[C@@H](CO)C(=O)N[C@@H](CO)C(=O)N[C@H](C(=O)N[C@@H](CCC(=O)O)C(=O)N[C@H](C(=O)NCC(=O)N[C@@H](CO)C(=O)N[C@@H](CC(N)=O)C(=O)N[C@H](C(=O)N1C[C@H](O)C[C@H]1C(N)=O)[C@@H](C)O)C(C)C)[C@@H](C)O)N(C)C(=O)[C@H](C)NC(=O)CN(C)C(=O)[C@H](Cc1ccccc1)NC(=O)[C@H](CO)NC(=O)[C@H](CO)NC(=O)[C@H](CCCNC(=N)N)NC(=O)[C@H](CCC(N)=O)NC(=O)[C@H](CC(C)C)NC(=O)[C@H](Cc1ccccc1)NC(=O)[C@H](Cc1c[nH]cn1)NC(=O)[C@H](C)NC(=O)[C@H](CC(C)C)NC(=O)[C@H](CCCNC(=N)N)NC(=O)[C@H](CCC(=O)O)NC(=O)[C@@H](NC(=O)[C@H](C)NC(=O)[C@@H]1CSSC[C@H](NC(=O)[C@H](CCCNC(=N)N)NC(=O)CC[C@H](NC(=O)CCCCCCCCCCCCCCCCCCC(=O)O)C(=O)O)C(=O)N[C@@H](CCC(N)=O)C(=O)N[C@@H]([C@@H](C)O)C(=O)N[C@@H](C)C(=O)N[C@@H]([C@@H](C)O)C(=O)N1)[C@@H](C)O [compound 80] ({C20 diacid-γGlu}-RCQTATCATERLAHFLQRSSF[Sar]A[NMeI]LSSTEVGSNT[Hyp]-NH2; disulfide 2-7) | 0.015 |
